Measurements taken from patent US11389433B2, “BRD4 inhibitor treatment of IgE-mediated diseases” (THE BOARD OF REGENTS OF THE UNIVERSITY OF TEXAS SYSTEM, priority 2018, dated 2022).

Key:
[1] = test system: CIG5; assay: Inhibition of CIG5 induction in hSAECs; format: cell-based; settings: Homo sapiens
[2] = test system: IL-6; assay: Inhibition of IL-6 induction in hSAECs; format: cell-based; settings: Homo sapiens
[3] = test system: rCDE-challenged C57BL/6 mice; assay: Repetitive cat dander extract (rCDE) challenge, airway remodeling model; format: in vivo, mouse; settings: 10 mg/kg ip; for modified Ashcroft score: rCDE alone 8.8±2 (IKKi study), 9±2 (ZL0454 study)
Method: 12 week old male wild-type (WT) C57BL/6 mice were purchased from Jackson Laboratory (Bar Harbor, Me.). CDE (Stallergenes/Greer laboratories, 20 μg/dose) was administered to naïve C57BL6/J mice every other day via the intranasal route for a total of 15 administrations (n=5 mice/group). In the IKK inhibitor experiments, mice were either pretreated with vehicle or the selective IKK inhibitor [BMS345541, 10 mg/kg via the intraperitoneal (ip) route]. […] Mice were sacrificed 12 d later to allow resolution of the acute inflammation.
Formalin-fixed lungs were embedded in paraffin, sectioned at a 4 μm thickness, and stained with hematoxylin and eosin or Masson's trichrome. Microscopy was performed on a NIKON Eclipse Ti System 16, 17. Pulmonary fibrosis was graded using a modified Ashcroft scoring method 16, 17. In brief, to determine the fibrosis histopathology score for the lung of each mouse, the entire left and right longitudinal lung sections were scored separately (score range, 0 to 9) at ×100 magnification, and the scores were combined (total score range, 0 to 18)^16, 17.
Bronchoalveolar lavage and tissue processing. Animals were anesthetized, bronchoalveolar lavage fluid (BALF) was obtained and the mice sacrificed. Lung tissues were taken for total RNA extraction or fixed for histological examination. For histological examination, lungs were inflated under 25 cm H2O pressure with 10% (v/v) neutral buffered formalin through the tracheal cannula and immersed in 10% buffered formalin for at least 24 h. After being processed into paraffin blocks, the lungs were cut into 5-μm sections and stained with Masson Trichrome to assess fibrotic changes. Microscopy was performed on a NIKON Eclipse Ti System^75.
Quantification of accumulated mucin was assessed by 2 investigators who were blind to the treatment groups on a subjective scale of 0, 1, 2, 3, and 4 corresponding to none, mild, moderate, marked, or severe mucin deposition, respectively. Data were expressed as means of scores recorded by 2 blinded investigators^76,77.
(§1) Cellular recruitment into the airway lumen was assessed in the collected bronchoalveolar lavage fluid (BALF) of mice. Lungs were perfused twice with 1 mL of sterile PBS (pH 7.4) and total cell counts determined by trypan blue staining and counting using a hemocytometer. Differential cell counts were performed on cytocentrifuge preparations (Cytospin 3; Thermo Shandon, Pittsburgh, Pa.) stained with Wright-Giemsa. A total of 300 cells were counted per sample using light microscopy.
(§2) For gene expression analyses, 0.1 μg of cDNA product from reverse transcription of total RNA was amplified using SYBR Green Supermix (Bio-Rad) and gene-specific primers as previously described^75, 78. Quantification of relative changes in gene expression was calculated using the ΔΔCt method^79,80 and expression as the fold change between experimental and control samples was normalized to internal control peptidylprolyl isomerase A (PPI1A)/cyclophilin A.
Confocal Immunofluorescence assays of lung sections were performed on formalin-fixed, paraffin-embedded sections after rehydration using serial concentrations of ethanol. Antigen retrieval was performed in Tris-EDTA buffer (pH 9.0). Lung sections were blocked using 0.1% Triton-X, 5% normal goat serum in phosphate buffered saline (PBS) and incubated with primary antibodies of rabbit anti-p276RelA, pIKKα/β, SNAIL H3K122ac, COL1A, VIM, FN1, and αSMA (Abcam, 1:100 dilution) overnight at 4° C. Normal anti-rabbit IgG were used as staining specificity controls. After washing, lung sections were stained with Alexa Fluor 488- or 568-conjugated goat anti-rabbit IgG (Life Technologies) in incubation buffer for 1 h. Nuclei were stained with 4′, 6-diamidino-2-phenylindole (DAPI) (5 μg/ml in PBS, 20 min) and mounted slides visualized with a LSM510 fluorescence confocal microscope, magnification 63×.
Total IgE in serum were measured using Sandwich ELISA. […]

[4] = molecular target: BRD4 (Homo sapiens, UniProt O60885); settings: in cellulo; cited from earlier work
[5] = 3 months of administration; cited from earlier work
[6] = test system: hSAECs; assay: CDE-induced mesenchymal transition of hSAECs; format: cell-based, human; settings: CDE 20 μg/mL 15 d; 10 μM
Method: Immortalized human small airway epithelial cells (hSAECs) were previously described^25. hSAECs were grown in SAGM small airway epithelial cell growth medium (Lonza, Walkersville, Md.) in a humidified atmosphere of 5% CO2. BMS345541 was purchased from Sigma Aldrich. CDE was purchased from Greer Laboratories.
as §2
hSAECs were incubated ±CDE (20 μg/mL) for 15 d, re-plated on glass cover slips pretreated with rat tail collagen (Roche Applied Sciences), and fixed with 4% paraformaldehyde in PBS. Afterwards, the fixed cells were stained with Alexa Fluor® 488- or 568-phalloidin (Life Technologies) for cytoplasmic distribution of F-actin (green or red color) and also counterstained with 4′,6-diamidino-2-phenylindole (DAPI) for nuclear staining (blue color). The cells were visualized with a Nikon fluorescence confocal microscope at a magnification of 63×^75, 78.
For immunofluorescence staining, hSAECs were plated on rat tail collagen-treated cover glasses and stimulated with CDE for the indicated times. The cells were fixed with 4% paraformaldehyde in PBS and incubated with 0.1 m ammonium chloride for 10 min. […] After washing, cells were stained with Alexa Fluor 488- or 568-conjugated goat anti-rabbit IgG (Life Technologies) respectively in incubation buffer for 1 h, then visualized with a LSM510 fluorescence confocal microscope, magnification 63×.

[7] = test system: acute CDE-challenged mice; assay: Acute intranasal CDE challenge, BALF cell counts; format: in vivo, mouse; settings: 10 mg/kg; within 24 h of treatment
From the text: FIG. 12. BRD4 pathway mediates CDE-induced EMT of airway epithelial cells. […] A, Q-RT-PCR for CDH1 mRNA expression. #, p<0.01, compared to without CDE, n=3. B, Q-RT-PCR for SNAI1 mRNA expression. *, p<0.01, compared to CDE alone, n=3. C, Q-RT-PCR for COL1A, FN1, and VIM mRNA expression. D, Q-RT-PCR for IL6 mRNA expression. E, Confocal immunofluorescence microscopy for phalloidin (green color), H3K122-Ac (red color), SNAI1 (green color), and VIM (red color) counterstained with DAPI (blue color) in WT hSAECs in absence or presence of CDE (20 μg/mL, 15d) stimulation. Images were acquired at 63×. At right are quantifications of relative fluorescence intensities of phalloidin, H3K122ac, SNAIL and VIM, * p<0.01, n=5. […] Shown are total, macrophage, and neutrophil counts in BALF 24 h later after CDE challenge. G. Total serum IgE was quantitated for each chronic treatment group **, p<0.01, n=5.
as §1

[8] = cited from earlier work

Compound: COc1cc(OC)c2c(=O)cc(-c3cc(C)c(OCCO)c(C)c3)oc2c1 [ZL0468]
- IC50 [1]: 2.6 µM
- IC50 [2]: 2.8 µM

Compound: Cc1ccc2nc(NCCN)c3ncc(C)n3c2c1 [IKKi, reference compound]
- total leukocytes in the BALF ([3]; rCDE 15 intranasal challenges, rCDE alone 1,700×10^3): 450×10^3 cells/ml
- CDE-specific circulating IgE (allergic sensitization) ([3]; rCDE): completely blocked
- PAS staining (mucin, mucous metaplasia) ([3]; rCDE): blocked
- fibrosis / collagen formation and hypercellularity (Masson trichrome) ([3]; rCDE): reduced the fibrosis and hypercellularity, although not completely in the alveoli
- mesenchymal and ECM gene mRNA expression in total lung RNA (Q-RT-PCR) ([3]; rCDE): inhibited
- mucosal mesenchymal and ECM proteins (SNAI1, VIM, COL1A, FN1), immunofluorescence ([3]; rCDE): completely blocked
- subepithelial αSMA+/COL1+ myofibroblast population ([3]; rCDE): blocked
- hydroxyproline concentration in BALF and lung tissue ([3]; rCDE, rCDE alone 2-fold increase): normalized
- modified Ashcroft score ([3]; rCDE): 2±1
- phospho-IKKα/β abundance in the airway epithelial layer ([3]; rCDE, rCDE alone 9-fold increase): reduced to control values
- mucosal phospho-Ser 276 RelA formation ([3]; rCDE, rCDE alone 14-fold increase): blocked

Compound: Cc1cc(/N=N/c2ccc3c(c2)CCC(=O)N3)c(N)cc1O [ZL0420]
- IC50 [1]: 0.42 µM

Compound: Cc1cc(/N=N/c2ccc(S(=O)(=O)NC3CCCC3)cc2)c(N)cc1O [ZL0454, (E)-4-((2-Amino-4-hydroxy-5-methylphenyl)diazenyl)-N-cyclopentylbenzenesulfonamide]
- BRD4 binding to Pol II and histones [4]: disrupts
- tolerability / apparent toxicity [5]: well tolerated over 3 months of administration without apparent toxicity
- CDE-induced inhibition of CDH1 mRNA [6]: blocked
- CDE-induced upregulation of SNAI1, FN1, VIM, COL1A and IL6 mRNAs [6]: significantly blocked
- formation of actin stress fibers, H3K122 Ac, SNAI1 and VIM expression (confocal immunofluorescence) [6]: prevented
- acute CDE-induced BALF neutrophilia [7]: blocked
- CDE-specific circulating IgE (allergic sensitization) ([3]; rCDE): completely blunted allergic responses
- PAS staining (mucin, mucous metaplasia) ([3]; rCDE): reduced
- RelA-BRD4 binding in lung sections (proximity ligation assay) ([3]; rCDE): disrupted
- fibrosis / collagen formation and hypercellularity (Masson trichrome) ([3]; rCDE): reduced collagen formation and hypercellularity
- mesenchymal and ECM gene mRNA expression in total lung RNA (Q-RT-PCR) ([3]; rCDE): BRD4-dependent
- mucosal H3K122 Ac staining (BRD4 HAT activity) ([3]; rCDE): inhibited
- mucosal mesenchymal and ECM proteins (SNAI1, VIM, COL1A, FN1), immunofluorescence ([3]; rCDE): inhibited
- subepithelial αSMA+/COL1+ myofibroblast population ([3]; rCDE): blocked
- hydroxyproline content in the lung ([3]; rCDE, rCDE alone 0.65±1): 0.35 ± 0.4 µg/mg
- modified Ashcroft score ([3]; rCDE): 1.5±0.5
- hydroxyproline content in BALF ([3]; rCDE, rCDE alone 130±20): 70 ± 10 ng/mL

Compound: CCC(=O)O[C@]1(C(=O)SCF)[C@H](C)C[C@H]2[C@@H]3C[C@H](F)C4=CC(=O)C=C[C@]4(C)[C@@]3(F)[C@@H](O)C[C@@]21C [Fluticasone propionate]
- solubility in dimethyl sulfoxide and dimethylformamide [8]: freely soluble
- solubility in methanol and 95% ethanol [8]: slightly soluble
- solubility in water ([8]; water): practically insoluble
